One block for each compound: values may come before it.
Legend:
[1] = Identification of IMMH-010 metabolites in rat urine, bile and feces; type: in vivo; details: after oral IMMH-010 maleate 5 mg/kg
Method: After oral administration of IMMH-010 maleate (5 mg/kg), two rats were housed in metabolic cages to collect urine and feces samples for 24 h. Feces samples were homogenized with methanol at 1:10 (w/v) and urine samples were diluted 10-fold in methanol. Additionally, two rats were bile duct cannulated under isoflurane anesthesia. After oral administration of IMMH-010 maleate (5 mg/kg), bile samples were collected over 0–2 h after dosing.
LC-MS was performed using a Thermo Scientific Q Exactive HF hybrid quadrupole-Orbitrap mass spectrometer. Reverse-phase liquid chromatography was performed on a Zorbax C18 column (100 × 2.1 mm, 3.5 μm). Mobile phase A was 0.1% aqueous formic acid and mobile phase B was 0.1% formic acid in methanol. The mobile phase was delivered with the following gradient elution profile: 0 min, 10% B; 15 min, 40% B; 17–19 min, 100% B; 20–23 min, 10% B. The total runtime for each injection was 23 min. The flow rate was 0.3 mL/min, and the column oven was maintained at 30 °C.
The analysis was performed in full mass spectrometry with data-dependent tandem mass spectrometry (MS/dd-MS^2) mode. For a full mass spectrometry scan, the selected scan range was from m/z 100 to 500, the resolution was 70,000, and the automatic gain control (AGC) target was set to 1.0 × 10^6 with a maximum injection time (IT) of 100 ms. For the dd-MS^2 scan, the fragmentation mass spectra were recorded at a mass resolving power of 17,500 fwhm with a quadrupole isolation window of 1.5 m/z for precursor ions. The AGC target was 2.0 × 10^5 and the maximum IT was 50 ms.
Xcalibur 4.1 software (Thermo Fisher Scientific, San Jose, CA, USA) was used for instrument control and data processing. Compound Discover 2.0 software was used for metabolite identification.

[2] = test system: cDNA-expressed human CYPs and FMOs; assay: IMMH-010 metabolism by cDNA-expressed human CYPs and FMOs; type: in vitro ADME; details: IMMH-010 10 µM, 50 pmol enzyme, 30 min, NADPH
Method: cDNA-expressed human CYPs were also used to investigate the enzymes mediating IMMH-010 metabolism. IMMH-010 (10 µM) was incubated individually with 50 pmol of 10 individual cDNA-expressed human CYPs (CYP1A1, CYP1A2, CYP2A6, CYP2B6, CYP2C9, CYP2C19, CYP2D6, CYP2E1, CYP2J2, or CYP3A4) and three cDNA-expressed human FMO enzymes (FMO1, FMO3, and FMO5) at 37 °C for 30 min. An NADPH regeneration system was added to initiate the reactions. Probe substrates of the CYPs were used as the positive controls. Incubations without NADPH served as the negative controls. All reactions were carried out in a final volume of 0.2 mL Tris-HCl buffer (50 mM, pH 7.4) containing 5 mM MgCl2 and conducted in triplicate. All incubations were terminated by 2 volumes of acetonitrile. After centrifugation at 14,000 rpm for 5 min, the samples were analyzed by LC-MS/MS.

[3] = Metabolism in human liver S9 fractions; type: in vitro ADME; details: human, monkey, dog and rat liver S9 incubations of IMMH-010 10 μM
Method: IMMH-010 metabolism was compared in human, monkey, dog, and rat liver S9 homogenates. IMMH-010 (10 μM) was incubated with liver S9 homogenate protein (0.5 mg protein/mL) and a reduced nicotinamide adenine dinucleotide phosphate (NADPH) regenerating system in a final volume of 0.2 mL Tris-HCl buffer (50 mM, pH 7.4) containing 5 mM MgCl2. The reactions were performed in triplicate. After 2 min of preincubation at 37 °C, reactions were initiated by the addition of IMMH-010 (10 μM). The samples were collected 0, 5, 10, and 20 min after incubation, 2 volumes of acetonitrile were added to terminate the reaction. After vortexing and centrifugation, IMMH-010, YPD-29B, M3, and M4 in the supernatant were analyzed by LC-MS/MS.
(§1) All statistics were calculated using GraphPad Prism 8.0 software (San Diego, CA, USA) designed for one-way ANOVA. Pharmacokinetic parameters were calculated with a non-compartmental analysis using WinNonlin Version 6.3 (Pharsight, Mountain View, CA, USA). ADMET predictor V10.0 (Simulations Plus, Inc., Lancaster, CA, USA) and Microsoft Excel (Microsoft, Redmond, WA, USA) were used to process the data (i.e., half-life (t1/2) and hepatic clearance (CLhep) determination). Data were expressed as means ± standard deviations (SD). Results were considered statistically significant if the p-value <0.05, <0.01 and <0.001.

[4] = Metabolism in human intestinal microsomes; type: in vitro ADME; details: NADPH-dependent
Method: (§2) To compare the differences in IMMH-010 metabolism between the liver and intestine, IMMH-010 (10 μM) was incubated with rat liver and intestinal S9 homogenate protein (1 mg protein/mL) and with human liver and intestinal microsomes (0.2 mg protein/mL) in a final volume of 0.2 mL Tris-HCl buffer (50 mM, pH 7.4) containing 5 mM MgCl2. The incubations were performed in duplicate in the presence and absence of an NADPH regenerating system. After 2 min preincubation at 37 °C, reactions were initiated by the addition of IMMH-010 (10 μM). Incubations were terminated by acetonitrile at 0, 10, and 20 min. IMMH-010, YPD-29B, M2, and M3 were quantified by LC-MS/MS assay. Midazolam (10 μM, a substrate of CYP3A4) was set as the positive control.

[5] = Metabolism in human liver microsomes; type: in vitro ADME; details: NADPH-dependent
Method: as §2

[6] = PK study in male cynomolgus monkeys; type: in vivo, cynomolgus monkey; details: single oral IMMH-010 maleate 5 mg/kg
Method: IMMH-010 maleate was suspended with 0.5% carboxymethyl cellulose to make a 1 mg/mL suspension for PO gavage. Four male cynomolgus monkeys received a single oral dose of IMMH-010 maleate (5 mg/kg). Serial blood samples were collected upto 48 h. The plasma was separated and the plasma concentrations of IMMH-010 and YPD-29B were determined by LC-MS/MS.
(§3) LC-MS/MS was performed using a triple quadrupole mass spectrometer (API 4000, AB Sciex, Framingham, MA, USA) with an ultra-performance liquid chromatography system (LC-30A, Shimadzu, Kyoto, Japan). Analyst 1.6.2 software (AB Sciex) was used for data acquisition and analysis. Mobile phase A was 1 mM ammonium acetate and mobile phase B was methanol. The mobile phase was delivered with the following gradient elution profile: 0–2.8 min, 70% B; 2.9 min, 85% B; 3 min, 90% B; 3.1–6.8 min, 100% B; 6.9–12 min, 70% B. The flow rate was 0.3 mL/min, and the column oven was maintained at 35 °C. The specific transitions monitored were 641.3 → 494.2 for IMMH-010, 597 → 155 for YPD-29B, 512 → 247 for M3, and 524 → 246 for M4.
as §1

[7] = Plasma and tumor PK in MC38 colon cancer xenograft mice; type: in vivo, mouse
Method: (§4) After the final dose, tumor and blood samples treated with IMMH-010 maleate (5 mg/kg) were collected over 72 h. Blood was exposed in an EP tube containing 500 mM NaF and 0.5% heparin sodium. Plasma samples were obtained by centrifugation, and tumor tissues were homogenized with 3 volumes (w/v) of saline on ice. The concentration of IMMH-010 and YPD-29B in plasma and tumor samples was quantitated by an LC-MS/MS method.
as §3, §1

[8] = Plasma and tumor PK in B16F10 melanoma xenograft mice; type: in vivo, mouse
Method: as §4, §3, §1

[9] = Body weight in MC38 model; details: MC38, CTX 40 mg/kg weekly
Method: (§5) The antitumor activity of IMMH-010 was evaluated by B16F10 melanoma and MC38 colon carcinoma xenograft models. The B16F10 and MC38 cells were resuspended in saline (1.5 × 10^6 cells/0.2 mL saline) and injected subcutaneously into the right flanks of each mouse on day 0. The treated mice received once-daily oral administration of IMMH-010 maleate (1.25, 2.5, 5, and 10 mg/kg, n = 10) by oral gavage (PO) for 19 consecutive days, whereas the control mice received vehicle (0.5% carboxymethyl cellulose, n = 10). The mice in the positive control group received the anti-mouse PD-L1 antibody (696618M2, Bio X Cell, West Lebanon, NH, USA) at 10 mg/kg intraperitoneally every 3 days (n = 10). The first-line antineoplastic drug cyclophosphamide (CTX) was administered at doses of 80 and 40 mg/kg weekly in the B16F10 and MC38 models (n = 10), respectively. After the last treatment, on day 19, the mice were sacrificed, and the tumor and spleen were stripped and weighed. The tumor growth inhibition (TGI) was calculated as TGI = (1 − treatment group tumor weight/vehicle group tumor weight) × 100.

[10] = test system: MC38 colon carcinoma; assay: Antitumor activity in MC38 colon carcinoma xenograft model; type: in vivo, mouse; details: MC38, CTX 40 mg/kg weekly, day 19
Method: as §5

[11] = test system: B16F10 melanoma; assay: Antitumor activity in B16F10 melanoma xenograft model; type: in vivo, mouse; details: B16F10, CTX 80 mg/kg weekly, day 19
Method: as §5

[12] = Body weight in B16F10 model; details: B16F10, CTX 80 mg/kg weekly
Method: as §5

SMILES: O=C(O)[C@H](CO)NCc1cc(Cl)c(OCc2cccc(-c3ccccc3)c2Br)cc1OCc1cccnc1 [YPD-29B]
AUC ([6]; cynomolgus monkey, plasma): 186 ng·h/mL
Cmax ([6]; cynomolgus monkey, plasma): 35.5 ng/mL
half-life ([6]; cynomolgus monkey, plasma, read-out: mean t1/2β in plasma (converted)): 9 h
Tmax ([6]; cynomolgus monkey, plasma, read-out: observed time to peak concentration): ≤ 1.5 h
molar AUC ratio of YPD-29B to IMMH-010 [6]: 4.17
metabolite in rat feces and bile [1]: detected
metabolite in rat urine ([1]; 24 h urine): found
half-life ([7]; C57BL/6, mouse, plasma, IMMH-010 maleate 5 mg/kg PO, read-out: elimination half-life (t1/2β) in plasma (converted)): 1.76 h
Tmax ([7]; C57BL/6, mouse, plasma, IMMH-010 maleate 5 mg/kg PO, read-out: mean time of peak plasma concentration (converted)): 0.25 h
Cmax ([7]; C57BL/6, mouse, plasma, after last oral dose of IMMH-010 maleate 5 mg/kg for 19 days, read-out: mean peak concentration (Cmax) in plasma): 64.4 ng/mL
Kp ([7]; C57BL/6, mouse, tumor and plasma, IMMH-010 maleate 5 mg/kg PO, read-out: tissue/plasma ratio (AUCtumor/AUCplasma)): 2.4
half-life ([7]; C57BL/6, mouse, tumor, IMMH-010 maleate 5 mg/kg PO, read-out: t1/2β in tumor (converted)): 45 h
Tmax ([7]; C57BL/6, mouse, tumor, IMMH-010 maleate 5 mg/kg PO, read-out: time of maximum concentration in the tumor): 0.25 to 1 h
area under the plasma concentration versus time curve (AUC) ([7]; IMMH-010 maleate 5 mg/kg PO): ~69.9 ng·h/mL
area under the plasma concentration versus time curve (AUC) ([8]; B16F10 mice, IMMH-010 maleate 5 mg/kg PO): ~69.9 ng·h/mL
half-life ([8]; C57BL/6, mouse, plasma, B16F10 mice, IMMH-010 maleate 5 mg/kg PO, read-out: elimination half-life (t1/2β) in plasma (converted)): 1.61 h
Tmax ([8]; C57BL/6, mouse, plasma, B16F10 mice, IMMH-010 maleate 5 mg/kg PO, read-out: mean time of peak plasma concentration (converted)): 0.25 h
Cmax ([8]; C57BL/6, mouse, plasma, B16F10 mice, after last oral dose of IMMH-010 maleate 5 mg/kg for 19 days, read-out: mean peak concentration (Cmax) in plasma): 42.6 ng/mL
Kp ([8]; C57BL/6, mouse, tumor and plasma, B16F10 mice, IMMH-010 maleate 5 mg/kg PO, read-out: tissue/plasma ratio (AUCtumor/AUCplasma)): 2.1
half-life ([8]; C57BL/6, mouse, tumor, B16F10 mice, IMMH-010 maleate 5 mg/kg PO, read-out: t1/2β in tumor (converted)): 12.4 h
Tmax ([8]; C57BL/6, mouse, tumor, B16F10 mice, IMMH-010 maleate 5 mg/kg PO, read-out: time of maximum concentration in the tumor): 0.25 to 1 h
t1/2β in tumors relative to plasma ([8]; range over B16F10 and MC38 xenograft mice): 7.6–25 times

SMILES: O=P1(N(CCCl)CCCl)NCCCO1 (stereo not drawn) [CTX, cyclophosphamide, reference compound]
Body Weight (g) X ± SD Finish ([9]; finish day 19): 24.5 ± 0.9 g
Body Weight (g) X ± SD Start ([9]; start): 22.0 ± 0.8 g
Tumor Weight (g) X ± SD [10]: 0.17 ± 0.10 g
Tumor Weight TGI (%) [10]: 90%
Tumor Weight (g) X ± SD [11]: 0.23 ± 0.18 g
Tumor Weight TGI (%) [11]: 90%
Body Weight (g) X ± SD Finish ([12]; finish day 19): 19.2 ± 0.8 g
Body Weight (g) X ± SD Start ([12]; start): 16.94 ± 0.43 g

Next, values leading:

metabolite in rat feces and bile [1]: detected
enzyme with the highest metabolic activity for formation of the metabolite [2]: CYP2D6
amount of minor metabolite formed [3]: < 3%
transformation ratio of IMMH-010 to this metabolite [4]: < 2%
transformation ratio of IMMH-010 to this metabolite [5]: < 2%
SMILES: OCc1cc(Cl)c(OCc2cccc(-c3ccccc3)c2Br)cc1OCc1cccnc1 [M3]

metabolite in rat feces and bile [1]: detected
formation of the metabolite in CYP and FMO incubations [2]: not detected
amount of minor metabolite formed [3]: < 3%
SMILES: O=C(O)c1cc(Cl)c(OCc2cccc(-c3ccccc3)c2Br)cc1OCc1cccnc1 [M4]

metabolite in rat feces and bile [1]: detected
enzyme with the highest metabolic activity for formation of the metabolite [2]: CYP2D6
transformation ratio of IMMH-010 to this metabolite [4]: < 2%
transformation ratio of IMMH-010 to this metabolite [5]: < 2%
SMILES: O=Cc1cc(Cl)c(OCc2cccc(-c3ccccc3)c2Br)cc1OCc1cccnc1 [M2]
